Literature values in US20190381039A1, “USE OF sGC STIMULATORS FOR THE TREATMENT OF ESOPHAGEAL MOTILITY DISORDERS” (Cyclerion Therapeutics, Inc., priority 2016, published 2019).

Columns and labels:
[1] = test system: patients with esophageal motility abnormalities
[2] = test system: patients with idiopathic achalasia
[3] = report from 2000, patients with esophageal dysmotility

Compound | relief of chest pain [1] | utility in achalasia patients (off label) ([2]; Bortolotti et al., Gastroenterology 118(2): 253-7, 2000) | side effects reported by patients ([2]; report from 2000) | LES pressure [2, 3] | clinical symptoms [2, 3]
CN(C)CCCN1c2ccccc2CCc2ccccc21 [imipramine] | effective in relieving chest pain | – | – | – | –
CCCc1nn(C)c2c(=O)[nH]c(-c3cc(S(=O)(=O)N4CCN(C)CC4)ccc3OCC)nc12 [sildenafil] | – | some limited utility | dizziness and headaches | able to reduce LES pressure | clinical symptoms were not improved
O=c1n(CCCN2CCN(c3cccc(Cl)c3)CC2)nc2ccccn12 [trazodone] | effective in relieving chest pain | – | – | – | –
